Experimental data taken from the supplement of paper PMC10883282.

How the values were obtained:
Test in all cases: standardised AUC of viability dose-response curve (72 h) (fraction (0-1)); higher = less growth inhibition (more resistant)
HT1080 = test system: HT1080
Procedure, shortened: (§1)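 Viability of sarcoma cell lines was read with ATPLite after 72 h of triplicate treatment in 384-well plates with 2.5 µl of compound from a compound-plate series of 10 mM to 0.0002 mM. Viability was scaled 1 (full) to 0 (none) and fitted with a four-parameter log-logistic model for each drug and cell line. The reported standardised area under the dose-response curve in log-dose space comes from a modified drexplorer computeAUC, where 1 is no response and 0 is full response.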

SW872 = test system: SW872
Procedure, shortened: as §1

G401 = test system: G401
Procedure, shortened: as §1

SW684 = test system: SW684
Procedure, shortened: as §1

RD-ES = test system: RD-ES
Procedure, shortened: as §1

SK-LMS-1 = test system: SK-LMS-1
Procedure, shortened: as §1

SW982 = test system: SW982
Procedure, shortened: as §1

KHOS-NP = test system: KHOS-NP
Procedure, shortened: as §1

VA-ES-BJ = test system: VA-ES-BJ
Procedure, shortened: as §1

A204 = test system: A204
Procedure, shortened: as §1

HS729 = test system: HS729
Procedure, shortened: as §1

MES-SA = test system: MES-SA
Procedure, shortened: as §1

SW1353 = test system: SW1353
Procedure, shortened: as §1

RD = test system: RD
Procedure, shortened: as §1

SYO-1 = test system: SYO-1
Procedure, shortened: as §1

KHOS-240S = test system: KHOS-240S
Procedure, shortened: as §1

SK-ES-1 = test system: SK-ES-1
Procedure, shortened: as §1

Structure (SMILES) | standardised AUC (HT1080) | standardised AUC (SW872) | standardised AUC (G401) | standardised AUC (SW684) | standardised AUC (RD-ES) | standardised AUC (SK-LMS-1) | standardised AUC (SW982) | standardised AUC (KHOS-NP) | standardised AUC (VA-ES-BJ) | standardised AUC (A204) | standardised AUC (HS729) | standardised AUC (MES-SA) | standardised AUC (SW1353) | standardised AUC (RD) | standardised AUC (SYO-1) | standardised AUC (KHOS-240S) | standardised AUC (SK-ES-1)
COc1cc2ncnc(Nc3ccc(F)c(Cl)c3)c2cc1OCCCN1CCOCC1 [GEFITINIB] | 0.983 | 0.959 | 0.963 | 0.988 | 0.961 | 0.942 | 0.927 | 0.994 | 0.989 | 0.948 | 0.963 | 0.948 | 0.955 | 0.973 | 0.945 | 0.962 | 0.904
CCc1nc(C(N)=O)c(Nc2ccc(N3CCC(N4CCN(C)CC4)CC3)c(OC)c2)nc1NC1CCOCC1 [GILTERITINIB] | 0.899 | 0.735 | 0.811 | 0.791 | 0.655 | 0.823 | 0.674 | 0.898 | 0.793 | 0.817 | 0.659 | 0.785 | 0.857 | 0.748 | 0.665 | 0.814 | 0.663
O=S(=O)(c1cccc2c(O)nccc12)N1CCCNCC1 [HYDROXYFASUDIL] | 0.999 | 0.961 | 0.99 | 0.95 | 1 | 0.979 | 0.992 | 0.981 | 0.968 | 0.98 | 0.917 | 0.967 | 0.965 | 1 | 0.958 | 0.975 | 0.976
C#Cc1cccc(Nc2ncnc3cc4c(cc23)OCCOCCOCCO4)c1 [ICOTINIB] | 0.988 | 0.958 | 0.995 | 0.986 | 0.985 | 0.982 | 0.989 | 0.996 | 0.975 | 0.958 | 0.918 | 0.976 | 0.947 | 1 | 0.966 | 0.99 | 0.986
CCN1CCN(c2ccc(Nc3cc(N(C)C(=O)Nc4c(Cl)c(OC)cc(OC)c4Cl)ncn3)cc2)CC1 [INFIGRATINIB] | 0.995 | 0.95 | 0.719 | 0.996 | 0.926 | 0.965 | 0.933 | 0.983 | 0.943 | 0.701 | 0.737 | 0.774 | 0.855 | 0.986 | 0.736 | 0.896 | 0.838
CS(=O)(=O)CCNCc1ccc(-c2ccc3ncnc(Nc4ccc(OCc5cccc(F)c5)c(Cl)c4)c3c2)o1 [LAPATINIB] | 0.99 | 0.936 | 0.991 | 0.989 | 0.995 | 0.938 | 0.94 | 0.99 | 0.966 | 0.915 | 0.952 | 0.924 | 0.941 | 0.938 | 0.924 | 0.927 | 0.928
O=C1CCc2c(Oc3ccc4c(c3)[C@@H]3[C@H](O4)[C@H]3c3nc4cc(C(F)(F)F)ccc4[nH]3)ccnc2N1 [LIFIRAFENIB] | 0.963 | 0.87 | 0.946 | 0.999 | 0.988 | 0.904 | 0.931 | 0.882 | 0.987 | 0.805 | 0.95 | 0.956 | 0.96 | 0.924 | 0.88 | 0.938 | 0.955
CNC(=O)c1cccc2cc(Oc3ccnc4cc(OCC5(N)CC5)c(OC)cc34)ccc12 [LUCITANIB] | 1 | 0.985 | 0.853 | 0.973 | 0.964 | 0.94 | 0.975 | 0.994 | 0.994 | 0.585 | 0.85 | 0.908 | 0.893 | 0.985 | 0.74 | 0.901 | 0.95
CCOc1cc2ncc(C#N)c(Nc3ccc(OCc4ccccn4)c(Cl)c3)c2cc1NC(=O)/C=C/CN(C)C [NERATINIB] | 0.877 | 0.817 | 0.851 | 0.901 | 0.822 | 0.847 | 0.717 | 0.889 | 0.83 | 0.755 | 0.872 | 0.745 | 0.753 | 0.775 | 0.818 | 0.873 | 0.693
COC(=O)c1ccc2c(c1)NC(=O)/C2=C(\Nc1ccc(N(C)C(=O)CN2CCN(C)CC2)cc1)c1ccccc1 [NINTEDANIB] | 0.96 | 0.978 | 0.859 | 0.953 | 0.896 | 0.943 | 0.941 | 0.961 | 0.982 | 0.624 | 0.88 | 0.967 | 0.966 | 0.93 | 0.672 | 0.858 | 0.832
Cc1[nH]c(/C=C2\C(=O)Nc3ccccc32)c(C)c1CCC(=O)O [ORANTINIB] | 0.971 | 0.975 | 0.977 | 0.966 | 0.985 | 0.976 | 0.966 | 0.99 | 0.967 | 0.963 | 0.934 | 0.958 | 0.964 | 0.994 | 0.976 | 0.993 | 0.977
